Experiments:
biotinylated Aβ1-42 = target: T1, biotinylated Aβ1-42 (Homo sapiens, UniProt P05067); test: Inhibition of Abeta oligomerisation (biotinylated Aβ1-42, neutravidin plate, streptavidin-HRP); format: biochemical; conditions: inhibition of Aβ1-42 aggregation, approximately 12 nM Aβ1-42, PBS pH 7.4, 2% DMSO, 30 min RT
T1 construct: To assure monomerisation of biotinylated Aβ1-42 (Anaspec #23523-0.5) the peptide was thoroughly monomerised; purchased Anaspec 23523-0.5

primary chicken neurons = test: Inhibition of Abeta 1-42 toxicity on primary chicken neurons (MTT); format: cell-based; set-up: key: No: no effect; +: minor positive effect on cell viability in the presence of aggregated Aβ 1-42; ++: medium positive effect on cell viability in the presence of aggregated Aβ 1-42; +++: strong positive effect on cell viability in the presence of aggregated Aβ 1-42; conditions: 10 μM Aβ1-42 aggregated together with compound for 48 h
Procedure: One-day-old fertilized eggs are stored under appropriate conditions until start of breeding. On embryonic day 0 eggs are transferred to the breeding incubator and under turning, kept at 37.8° C. and 55% humidity until embryonic day eight. Neurons are prepared as follows: In short, embryos are transferred to a plastic dish, and decapitated. Both brain hemispheres are removed, collected and any loose tissue removed. Hemispheres are mechanically dissociated and 4.8×10^4 cells per well (96-well plates) are seeded in a volume of 160 μl.
Aβ1-42 (MW 4514.1) was obtained from American Peptide Company as a lyophilized powder. A stock solution of 340 μM Aβ1-42 was prepared in 50 mM Tris-Buffer, 150 mM NaCl, pH7.6 according to the manufacturer's instructions. After sonication, the stock solution is diluted 1:1 with the test compounds to obtain a concentration of 170, 17 and 1.7 μM. After aggregation at 4° C. for 48 h, the solutions are sonicated again prior to application to the cells. The final concentration of Aβ1-42 applied to the primary chicken neurons is 10 μM.
Aβ1-42 aggregated together with compound for 48 hrs was applied to chicken neurons at DIV4 (days in vitro) and analyzed at DIV10 (144 hrs) and all others were applied to chicken neurons at DIV6 and analysed at DIV10 (96 hrs).
Viability of cultures is determined by the MTT assay. The MTT assay allows for the measurement of the mitochondrial dehydrogenase activity which reduces yellow MTT to dark blue formazan crystals. Since this reaction is catalyzed in living cells only this assay is used for the determination of cell viability. MTT solution is added to each well in a final concentration of 0.5 mg/ml. After 2 hours the MTT containing medium is aspired. Cells are lysed in 3% SDS and the formazan crystals are dissolved in isopropanol/HCl. Optical density is measured with a plate-reader at wavelength 570 nm. Cell survival rate is expressed as a percentage of optical density (OD) relative to control cells not treated with Aβ or compound.

prion = conditions: Ref: JBC doi: 10.1074/jbc.M112.355958; cited from earlier work

T1 sequence (P05067 672-713 limits assumed): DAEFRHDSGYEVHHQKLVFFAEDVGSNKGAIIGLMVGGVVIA

SMILES	IC50 (biotinylated Aβ1-42) [nM]	Rescue of Abeta toxicity (MTT) (primary chicken neurons; Conc. 1 μM)	Rescue of Abeta toxicity (MTT) (primary chicken neurons; Conc. 10 μM)	Rescue of Abeta toxicity (MTT) (primary chicken neurons; Conc. 0.1 μM)	pIC50 (biotinylated Aβ1-42)	anti-prion potential (prion)
CS(=O)(=O)c1ccc(-c2cc(CC(=O)O)c(-c3ccc(-c4sc(-c5ccc(S(C)(=O)=O)cc5)cc4CC(=O)O)s3)s2)cc1 [Example 16, 2-(2-{5-[3-(Carboxymethyl)-5-(4-methanesulfonylphenyl)thiophen-2-yl]thiophen-2-yl}-5-(4-methanesulfonylphenyl)thiophen-3-yl)acetic acid]	5010	+++	+++	–	–	–
O=C(O)c1ccc(-c2cc(CCO)c(-c3ccc(-c4sc(-c5ccc(C(=O)O)s5)cc4CCO)s3)s2)s1 [Example 5, 5-(5-{5-[5-(5-Carboxythiophen-2-yl)-3-(2-hydroxyethyl)thiophen-2-yl]thiophen-2-yl}-4-(2-hydroxyethyl)thiophen-2-yl)thiophene-2-carboxylic acid]	3980	++	+	no	–	–
O=C(O)CCc1ccsc1-c1ccc(-c2sc(-c3ccc(-c4cc(CCC(=O)O)c(-c5ccc(-c6sccc6CCC(=O)O)s5)s4)s3)cc2CCC(=O)O)s1 [Example 62, 3-(2-{5-[3-(2-Carboxyethyl)-5-{5-[4-(2-carboxyethyl)-5-{5-[3-(2-carboxyethyl)thiophen-2-yl]thiophen-2-yl}thiophen-2-yl]thiophen-2-yl}thiophen-2-yl]thiophen-2-yl}thiophen-3-yl)propanoic acid]	398	+++	–	++	–	–
CS(=O)(=O)c1ccc(-c2ccc(-c3sc(-c4cc(CC(=O)O)c(-c5ccc(-c6ccc(S(C)(=O)=O)cc6)s5)s4)cc3CC(=O)O)s2)cc1 [Example 50, 2-{5-[4-(Carboxymethyl)-5-[5-(4-methanesulfonylphenyl)thiophen-2-yl]thiophen-2-yl]-2-[5-(4-methanesulfonylphenyl)thiophen-2-yl]thiophen-3-yl}acetic acid]	2510	+++	+++	no	–	–
O=C(O)Cc1ccsc1-c1ccc(-c2sc(-c3cccc(-c4cc(CC(=O)O)c(-c5ccc(-c6sccc6CC(=O)O)cc5)s4)c3)cc2CC(=O)O)cc1 [Example 39, 2-(5-{3-[4-(Carboxymethyl)-5-{4-[3-(carboxymethyl)thiophen-2-yl]phenyl}thiophen-2-yl]phenyl}-2-{4-[3-(carboxymethyl)thiophen-2-yl]phenyl}thiophen-3-yl)acetic acid]	794	+	no	+	–	–
O=C(O)Cc1ccsc1-c1ccc(-c2sc(-c3cc(CC(=O)O)c(-c4ccc(-c5sccc5CC(=O)O)s4)s3)cc2CC(=O)O)s1 [Example 17, 2-(2-{5-[3-(Carboxymethyl)-5-[4-(carboxymethyl)-5-{5-[3-(carboxymethyl)thiophen-2-yl]thiophen-2-yl}thiophen-2-yl]thiophen-2-yl]thiophen-2-yl}thiophen-3-yl)acetic acid]	5010	no	+++	+	–	–
O=C(O)Cc1cc(-c2ccc(-c3cc(CC(=O)O)c(-c4ccc(C(=O)O)s4)s3)s2)sc1-c1ccc(C(=O)O)s1 [Example 6, 5-[3-(Carboxymethyl)-5-{5-[4-(carboxymethyl)-5-(5-carboxythiophen-2-yl)thiophen-2-yl]thiophen-2-yl}thiophen-2-yl]thiophene-2-carboxylic acid]	7940	+	+++	++	–	–
O=C(O)Cc1cc(-c2ccc(-c3ccc(C(=O)O)s3)s2)sc1-c1ccc(-c2sc(-c3ccc(-c4ccc(C(=O)O)s4)s3)cc2CC(=O)O)s1 [Example 18, 5-{5-[4-(Carboxymethyl)-5-{5-[3-(carboxymethyl)-5-[5-(5-carboxythiophen-2-yl)thiophen-2-yl]thiophen-2-yl]thiophen-2-yl}thiophen-2-yl]thiophen-2-yl}thiophene-2-carboxylic acid]	1260	+	no	++	–	–
O=C(O)Cc1cc(-c2cccs2)sc1-c1ccc(-c2sc(-c3cccs3)cc2CC(=O)O)s1 [p-HTAA, reference compound]	–	–	–	–	5.7	pronounced anti-prion potential
O=C(O)Cc1ccsc1-c1ccc(-c2sc(-c3ccc(-c4cc(CC(=O)O)c(-c5ccc(-c6sccc6CC(=O)O)s5)s4)cc3)cc2CC(=O)O)s1 [Example 33, 2-(2-{5-[3-(Carboxymethyl)-5-{4-[4-(carboxymethyl)-5-{5-[3-(carboxymethyl)thiophen-2-yl]thiophen-2-yl}thiophen-2-yl]phenyl}thiophen-2-yl]thiophen-2-yl}thiophen-3-yl)acetic acid]	794	++	no	no	–	–

From patent US9359311B2, “Substituted aromatic oligomers” (NEUROSCIOS GMBH, priority 2011, dated 2016)
